Here are results for 4 molecules from US20220354817A1, “PHARMACEUTICAL COMPOSITION FOR PREVENTING OR TREATING SARCOPENIA CONTAINING NON-NATURAL AMINO ACID DERIVATIVE” (MYO-TEC-SCI, priority 2019, published 2022).

In one experiment the test system is myostatin promoter. The experiment is described as follows: Myostatin promoter activity, dual luciferase assay in C2C12 cells transfected with pGL4.15-MSTN. Conditions: for inhibition of myostatin promoter activity: 0.1 mM and 1 mM in medium without L-leucine; for inhibition of myostatin promoter activity / decrease in myostatin promoter activity compared to L-leucine: C2C12; for decrease in myostatin promoter activity compared to L-leucine: 1 mM in medium without L-leucine. It counts as cell-based, mouse. The procedure: After seeding 1×10^5 cells of mouse skeletal muscle cells C2C12 (ATCC, US) in a 12-well culture plate, on the next day, pGL4.15 empty vector and pGL4.15-MSTN vector containing myostatin promoter were transfected using Lipofectamine 2000 for 4 hours. […] After one day, a dual luciferase assay kit (Promega Inc.) was used to measure the promoter activity of myostatin.

Experiment [1] deals with mouse skeletal muscle cells C2C12. The experiment is described as follows: Degree of differentiation of C2C12 cells and number of differentiated intracellular nuclei. It counts as cell-based. Conditions: 1 mM in differentiation medium, C2C12 grown without L-leucine; for cells in which differentiation occurs, compared to L-leucine: days 1, 6, 9. Here is the method:
To observe how L-leucine and D-Leu-OMe-HCl act on the differentiation of mouse skeletal muscle cells C2C12, a differentiation medium containing 1 mM L-leucine and D-Leu-OMe-HCl was given to mouse skeletal muscle cells C2C12 continuously grown in a medium without L-leucine, respectively. On days 1, 6, and 9, the degree of differentiation of mouse skeletal muscle cells and the number of nuclei present in the differentiated cells were measured (see FIG. 13).
To observe how L-leucine and D-Leu-BOC—H2O act on the differentiation of mouse skeletal muscle cells C2C12, a differentiation medium containing 1 mM L-leucine and D-Leu-BOC—H2O was given to mouse skeletal muscle cells C2C12 continuously grown in a medium without L-leucine, respectively. On days 1, 6, and 9, the degree of differentiation of mouse skeletal muscle cells and the number of nuclei present in the differentiated cells were measured (see FIG. 15).

Another experiment has as its system myostatin mRNA. The experiment is described as follows: Myostatin mRNA expression by qRT-PCR in C2C12 cells, corrected with beta-actin. It counts as cell-based, mouse. The following applies: for inhibition of myostatin mRNA expression: 0.1 mM and 1 mM in medium without L-leucine. From the text: […] After one day, the mRNA expression level of myostatin was identified using qRT-PCR, and the myostatin mRNA expression value was corrected using the expression value of beta-actin.
(In general: Real-time PCR tracks product formation cycle by cycle.)

Where [2] appears, read: 1 mM in medium without L-leucine, C2C12.
[3] abbreviates: 0.1 mM in medium without L-leucine, C2C12, after one day.

Counter-ions that a name gives are not always drawn.

As to `CC(C)CC(NC(=O)OC(C)(C)C)C(=O)O` [D-Leu-BOC—H2O], in the experiment on myostatin promoter, the “inhibition of myostatin promoter activity” value is recorded as “inhibited” and the “decrease in myostatin promoter activity compared to L-leucine” value was “about 1.89 times”. Moreover, in experiment [1], the “cells containing 6 or more nuclei” value is “observed statistically significantly” and the “cells in which differentiation occurs, compared to L-leucine” value is “relatively large number of cells in which differentiation occurs”. Further, the “inhibition of myostatin mRNA expression” value in the experiment with myostatin mRNA (C2C12) was “inhibited”. In addition, in the experiment with myostatin mRNA (setting [2]), the “decrease of myostatin mRNA expression level relative to L-leucine” value is listed as “similarly to L-leucine”.
Regarding `COC(=O)C(N)CC(C)C` [D-Leu-OMe-HCl], in the experiment on myostatin promoter, the “inhibition of myostatin promoter activity” value is “inhibited” and the “decrease in myostatin promoter activity compared to L-leucine” value is “about 1.96 times”. Also, in experiment [1], the “cells containing 6 or more nuclei” value is “observed statistically significantly” and the “cells in which differentiation occurs, compared to L-leucine” value was “relatively large number of cells in which differentiation occurs”. Further, in the experiment on myostatin mRNA (C2C12), the “inhibition of myostatin mRNA expression” value is given as “inhibited”. Moreover, the “decrease in myostatin mRNA expression level compared to L-leucine” value with myostatin mRNA (0.1 mM in medium without L-leucine, C2C12) is given as “about 1.97 times”. The “decrease in myostatin mRNA expression level compared to L-leucine” value with myostatin mRNA (setting [2]) is reported as “about 3.68 times”.
For `CC(C)C[C@H](N)C(=O)OC(C)(C)C.Cl` [L-Leu-OtBu-HCl], the myostatin promoter activity result with myostatin promoter (setting [3]) is recorded as “significantly reduced”. In addition, the “expression of myostatin mRNA” value in the experiment on myostatin mRNA (setting [3]) is “decreased”.
Take `CC(C)C[C@H](N)C(=O)O` [L-leucine, reference compound]: the “inhibition of myostatin promoter activity” value with myostatin promoter is recorded as “inhibited”. Further, in the experiment with myostatin mRNA (C2C12), the “inhibition of myostatin mRNA expression” value is reported as “inhibited”.
